# Results from US9051311B2, “Sulfamide sodium channel inhibitors” (AMGEN INC., priority 2012, dated 2015).
# Counter-ions that a name gives are not always drawn.
# Experiments:
# [1] = target: T1, Nav 1.7 (Homo sapiens (Human), UniProt Q15858); assay: Nav 1.7 IonWorks Quattro (IWQ) in vitro assay, population patch-clamp; assay type: cell-based; details: 293 cells stably transfected with Nav 1.7; block at 26th pulse to −20 mV;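 further: cells held at −110 mV for 3 s, then 26 pulses of 150 ms at 5 Hz, leak-corrected peak current, percent block measured before and after compound, 3–8 min exposure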
# Experimental: (§1) Nav 1.7 and Nav 1.5 Ion Works Quattro (IWQ) In Vitro Assays
# (§2) 293 cells stably transfected with either Nav 1.7 or with Nav 1.5 were recorded in population patch-clamp mode with the IonWorks® Quattro automated electrophysiology system in accordance with the manufacturer's specifications (Molecular Devices, LLC, Sunnyvale, Calif.). Sodium channel currents were measured in response to a train of depolarizations that induced successively greater inactivation.
# (§3) Cells were held at −110 mV for three seconds (Nav 1.7) or half a second (Nav 1.5) from a holding voltage of −15 mV, then put through a series of 26 pulses of 150 msec duration to −20 mV at a frequency of 5 Hz. Cells were then left unclamped for a period of 3 to 8 minutes while a single concentration of test compound was added. Cells were then reclamped and put through the same voltage protocol. Current at the end of the 26th pulse to −20 mV was subtracted from the peak current evoked by the 26th pulse to −20 mV to correct for leak current. Percent block was calculated for each concentration in duplicate, and IC50 curves were fitted to percent block as a function of concentration.
# [2] = target: T1, Nav 1.7; assay: Nav 1.7 in vitro PatchExpress (PX) assay, whole cell voltage clamp; assay type: cell-based; details: 293 cells stably transfected with human Nav1.7; partially inactivated state (20 to 50% inactivation)
# Experimental: Nav 1.7 In Vitro PatchExpress (PX) Assay
# 293 cells stably transfected with human Nav1.7 were recorded in whole cell voltage clamp mode with the PatchXpress automated electrophysiology system (Molecular Devices, LLC, Sunnyvale, Calif.). Compound effects were measured on a partially inactivated state of the sodium channel. Cells were clamped to a holding potential yielding 20 to 50% inactivation. To elicit sodium current, channels were activated by pulsing to −10 mV for 20 msec. This voltage protocol was repeated at a rate of 0.1 Hz throughout the experiment. A single concentration of test compound was applied to cells for a duration of 3 minutes. Peak sodium current was measured at the end of the compound addition period to determine percent inhibition.
# [3] = target: T2, Nav 1.5 (Homo sapiens (Human), UniProt Q14524); assay: Nav 1.5 IonWorks Quattro (IWQ) in vitro assay, population patch-clamp; details: read-out: Nav 1.5 (IWQ) IC50; 293 cells stably transfected with Nav 1.5; block at 26th pulse to −20 mV;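 further: HEK293 cells stably expressing Nav1.5, sodium current at the 26th of 26 pulses to −20 mV (150 ms, 5 Hz) after compound versus before, leak-corrected, 3–8 min exposure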
# Experimental: as §1, §2, §3
# [4] = target: T2, Nav 1.5; assay: cell-based
# Experimental: as §1, §2, §3
# T2 sequence (Q14524 whole entry): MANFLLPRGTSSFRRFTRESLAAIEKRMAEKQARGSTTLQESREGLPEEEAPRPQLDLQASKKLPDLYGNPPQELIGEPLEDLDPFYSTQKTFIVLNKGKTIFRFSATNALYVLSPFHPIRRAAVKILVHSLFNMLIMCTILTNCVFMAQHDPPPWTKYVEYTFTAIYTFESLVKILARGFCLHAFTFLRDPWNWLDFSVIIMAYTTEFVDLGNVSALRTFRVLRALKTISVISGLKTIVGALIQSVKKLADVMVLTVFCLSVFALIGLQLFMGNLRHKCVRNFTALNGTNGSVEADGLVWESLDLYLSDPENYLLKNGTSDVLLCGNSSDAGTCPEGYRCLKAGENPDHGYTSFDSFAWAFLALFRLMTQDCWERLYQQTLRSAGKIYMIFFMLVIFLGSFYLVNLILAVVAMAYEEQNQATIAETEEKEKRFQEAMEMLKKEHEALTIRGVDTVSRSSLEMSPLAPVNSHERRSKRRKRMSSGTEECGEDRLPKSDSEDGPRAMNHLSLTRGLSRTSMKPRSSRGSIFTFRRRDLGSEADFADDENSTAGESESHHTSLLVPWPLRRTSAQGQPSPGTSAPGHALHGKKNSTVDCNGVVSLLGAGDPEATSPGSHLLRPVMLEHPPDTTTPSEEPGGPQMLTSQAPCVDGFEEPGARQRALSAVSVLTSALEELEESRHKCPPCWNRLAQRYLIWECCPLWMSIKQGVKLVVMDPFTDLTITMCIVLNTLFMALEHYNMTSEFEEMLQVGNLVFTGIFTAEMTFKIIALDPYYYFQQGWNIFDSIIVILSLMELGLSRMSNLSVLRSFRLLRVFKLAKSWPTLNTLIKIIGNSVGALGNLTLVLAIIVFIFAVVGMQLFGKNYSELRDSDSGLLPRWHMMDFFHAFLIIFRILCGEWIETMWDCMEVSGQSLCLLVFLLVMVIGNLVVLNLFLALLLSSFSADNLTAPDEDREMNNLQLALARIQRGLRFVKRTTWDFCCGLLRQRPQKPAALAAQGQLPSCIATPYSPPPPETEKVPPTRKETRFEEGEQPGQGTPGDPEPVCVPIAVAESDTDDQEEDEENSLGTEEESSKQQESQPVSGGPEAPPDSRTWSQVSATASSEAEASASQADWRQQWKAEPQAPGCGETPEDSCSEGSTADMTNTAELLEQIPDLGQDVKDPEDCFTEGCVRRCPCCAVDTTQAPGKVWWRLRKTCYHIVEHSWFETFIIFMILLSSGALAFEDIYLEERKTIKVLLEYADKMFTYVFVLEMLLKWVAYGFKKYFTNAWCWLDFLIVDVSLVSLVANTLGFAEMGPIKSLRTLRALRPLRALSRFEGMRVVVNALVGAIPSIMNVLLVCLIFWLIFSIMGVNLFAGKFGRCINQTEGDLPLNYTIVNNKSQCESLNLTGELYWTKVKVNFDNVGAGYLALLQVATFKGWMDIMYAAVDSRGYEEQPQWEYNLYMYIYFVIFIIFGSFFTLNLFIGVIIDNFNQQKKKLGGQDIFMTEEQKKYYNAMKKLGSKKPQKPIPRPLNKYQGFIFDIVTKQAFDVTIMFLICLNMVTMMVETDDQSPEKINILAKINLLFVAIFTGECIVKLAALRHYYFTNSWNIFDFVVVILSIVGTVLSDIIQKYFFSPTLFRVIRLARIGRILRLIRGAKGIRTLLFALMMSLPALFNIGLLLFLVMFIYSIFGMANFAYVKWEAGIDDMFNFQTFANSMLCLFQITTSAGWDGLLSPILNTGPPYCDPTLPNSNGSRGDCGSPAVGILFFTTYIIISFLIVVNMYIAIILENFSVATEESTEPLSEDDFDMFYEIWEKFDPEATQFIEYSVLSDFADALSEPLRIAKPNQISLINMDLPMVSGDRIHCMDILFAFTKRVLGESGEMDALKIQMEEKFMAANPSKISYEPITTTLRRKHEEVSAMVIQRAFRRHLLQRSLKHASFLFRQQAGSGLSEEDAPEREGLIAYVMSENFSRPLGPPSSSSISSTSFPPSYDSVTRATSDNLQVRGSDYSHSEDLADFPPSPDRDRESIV
# T1 sequence (Q15858 whole entry): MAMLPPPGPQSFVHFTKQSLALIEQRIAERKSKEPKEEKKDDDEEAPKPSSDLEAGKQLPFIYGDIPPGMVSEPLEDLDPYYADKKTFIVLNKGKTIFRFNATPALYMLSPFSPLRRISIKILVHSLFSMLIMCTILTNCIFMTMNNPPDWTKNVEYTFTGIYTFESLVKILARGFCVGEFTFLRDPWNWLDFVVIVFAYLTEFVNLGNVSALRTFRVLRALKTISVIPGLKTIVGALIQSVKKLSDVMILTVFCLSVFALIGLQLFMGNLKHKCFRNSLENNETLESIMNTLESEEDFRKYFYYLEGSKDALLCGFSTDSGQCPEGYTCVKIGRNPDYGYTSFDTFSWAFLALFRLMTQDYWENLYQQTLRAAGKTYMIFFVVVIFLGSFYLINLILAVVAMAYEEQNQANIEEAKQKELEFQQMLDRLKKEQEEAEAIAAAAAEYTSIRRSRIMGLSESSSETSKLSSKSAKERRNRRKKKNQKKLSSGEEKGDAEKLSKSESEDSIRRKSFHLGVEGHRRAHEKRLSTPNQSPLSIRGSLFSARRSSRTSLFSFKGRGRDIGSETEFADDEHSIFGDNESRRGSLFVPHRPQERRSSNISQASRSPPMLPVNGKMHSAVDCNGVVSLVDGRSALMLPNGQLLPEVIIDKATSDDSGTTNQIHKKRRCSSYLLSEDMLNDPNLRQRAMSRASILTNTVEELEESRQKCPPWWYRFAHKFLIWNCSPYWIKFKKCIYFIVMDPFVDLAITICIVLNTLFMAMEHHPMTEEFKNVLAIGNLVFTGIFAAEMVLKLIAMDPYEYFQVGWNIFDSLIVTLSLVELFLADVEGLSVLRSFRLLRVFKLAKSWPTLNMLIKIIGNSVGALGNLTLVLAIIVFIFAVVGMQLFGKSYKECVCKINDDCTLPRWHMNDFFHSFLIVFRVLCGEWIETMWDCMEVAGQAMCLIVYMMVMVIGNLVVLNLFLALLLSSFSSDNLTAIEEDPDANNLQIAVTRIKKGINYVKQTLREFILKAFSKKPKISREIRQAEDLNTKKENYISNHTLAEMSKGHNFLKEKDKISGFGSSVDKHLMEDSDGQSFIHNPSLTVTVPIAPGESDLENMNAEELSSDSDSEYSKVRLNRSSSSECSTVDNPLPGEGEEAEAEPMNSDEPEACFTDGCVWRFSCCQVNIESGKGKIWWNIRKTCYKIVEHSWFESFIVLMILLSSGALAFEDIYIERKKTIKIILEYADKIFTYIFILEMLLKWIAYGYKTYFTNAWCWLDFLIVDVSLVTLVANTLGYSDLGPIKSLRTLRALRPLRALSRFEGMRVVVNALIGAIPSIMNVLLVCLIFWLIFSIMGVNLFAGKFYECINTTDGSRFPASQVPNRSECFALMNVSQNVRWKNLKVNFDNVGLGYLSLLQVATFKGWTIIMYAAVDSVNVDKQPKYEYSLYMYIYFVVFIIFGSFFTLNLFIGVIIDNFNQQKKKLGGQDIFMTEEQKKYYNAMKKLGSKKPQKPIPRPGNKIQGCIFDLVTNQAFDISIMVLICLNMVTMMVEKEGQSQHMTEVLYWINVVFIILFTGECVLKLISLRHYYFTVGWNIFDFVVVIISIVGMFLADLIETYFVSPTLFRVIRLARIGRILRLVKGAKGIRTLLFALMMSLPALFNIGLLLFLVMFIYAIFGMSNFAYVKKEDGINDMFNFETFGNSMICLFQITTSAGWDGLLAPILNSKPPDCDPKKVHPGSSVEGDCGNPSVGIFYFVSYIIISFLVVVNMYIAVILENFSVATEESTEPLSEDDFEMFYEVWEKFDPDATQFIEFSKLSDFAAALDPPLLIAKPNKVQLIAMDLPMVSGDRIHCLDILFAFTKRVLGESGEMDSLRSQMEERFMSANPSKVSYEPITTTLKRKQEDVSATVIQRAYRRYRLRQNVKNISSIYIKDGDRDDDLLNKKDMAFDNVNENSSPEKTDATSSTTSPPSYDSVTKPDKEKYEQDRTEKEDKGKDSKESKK
IC50 [1],IC50 [2],SMILES,IC50 [3],IC50 [4]
12.7 µM,14.6 µM,"Cn1nccc1-c1cc(C(F)(F)F)ccc1-c1cccc2c1CCN(S(=O)(=O)Nc1ncccn1)C2 [Example 49, 5-(2-(1-Methyl-1H-pyrazol-5-yl)-4-(trifluoromethyl)phenyl)-N-(pyrimidin-2-yl)-3,4-dihydroisoquinoline-2(1H)-sulfonamide]",,> 10 µM
10.5 µM,,"O=S(=O)(Nc1cnccn1)N1CCc2c(cccc2-c2ccc(C(F)(F)F)cc2C2=CCNCC2)C1 [Example 53, N-(Pyrazin-2-yl)-5-(2-(1,2,3,6-tetrahydropyridin-4-yl)-4-(trifluoromethyl)phenyl)-3,4-dihydroisoquinoline-2(1H)-sulfonamide hydrochloride]",> 10 µM,
38.9 µM,> 10 µM,"O=S(=O)(Nc1ccncn1)N1CCc2c(cccc2-c2ccc(C(F)(F)F)cc2Br)C1 [Example 56, 5-(2-Bromo-4-(trifluoromethyl)phenyl)-N-(pyrimidin-4-yl)-3,4-dihydroisoquinoline-2(1H)-sulfonamide]",,> 10 µM
0.087 µM,1.05 µM,"COc1cc(C(F)(F)F)ccc1-c1ncnc2c1CCN(S(=O)(=O)Nc1nccs1)C2 [Example 59, 4-(2-methoxy-4-(trifluoromethyl)phenyl)-N-(thiazol-2-yl)-5,6-dihydropyrido[3,4-d]pyrimidine-7(8H)-sulfonamide]",,> 10 µM
0.141 µM,1.21 µM,"COc1cc(C(F)(F)F)ccc1-c1ncnc2c1CCN(S(=O)(=O)Nc1ncns1)C2 [Example 61, 4-(2-methoxy-4-(trifluoromethyl)phenyl)-N-(1,2,4-thiadiazol-5-yl)-5,6-dihydropyrido[3,4-d]pyrimidine-7(8H)-sulfonamide]",,> 10 µM

# Second part, the molecule before the results:
SMILES,IC50 [1],IC50 [2],IC50 [3],IC50 [4]
"CC(C)(C)OC(=O)N1CC=C(c2cc(C(F)(F)F)ccc2-c2cccc3c2CCN(S(=O)(=O)Nc2ncns2)C3)CC1 [Example 5, tert-Butyl 4-(2-(2-(N-(1,2,4-thiadiazol-5-yl)sulfamoyl)-1,2,3,4-tetrahydroisoquinolin-5-yl)-5-(trifluoromethyl)phenyl)-5,6-dihydropyridine-1(2H)-carboxylate]",1.03 µM,1.7 µM,5.63 µM,
"O=S(=O)(Nc1ncns1)N1CCc2c(cccc2-c2ccc(C(F)(F)F)cc2C2=CCNCC2)C1 [Example 6, 5-(2-(1,2,3,6-Tetrahydropyridin-4-yl)-4-(trifluoromethyl)phenyl)-N-(1,2,4-thiadiazol-5-yl)-3,4-dihydroisoquinoline-2(1H)-sulfonamide hydrochloride]",0.0221 µM,0.03 µM,> 10 µM,
"O=S(=O)(Nc1ncns1)N1CCc2c(cccc2-c2ccc(Cl)cc2F)C1 [Example 11, 5-(4-Chloro-2-fluorophenyl)-N-(1,2,4-thiadiazol-5-yl)-3,4-dihydroisoquinoline-2(1H)-sulfonamide]",4.22 µM,7.66 µM,> 10 µM,
"CC(C)(C)OC(=O)N1CCc2c(cccc2-c2cccc3c2CCN(S(=O)(=O)Nc2ncns2)C3)C1 [Example 58, tert-Butyl 2′-(N-(1,2,4-thiadiazol-5-yl)sulfamoyl)-1′,2′,3,3′,4,4′-hexahydro-[5,5′-biisoquinoline]-2(1H)-carboxylate]",15.8 µM,16.5 µM,,> 10 µM
